# How the values were obtained:
# Type in all cases: in vivo
# kochia (Kochia scoparia) [1] = assay: Test A preemergence, kochia; conditions: 0 to 100 scale; for Kochia plant response rating: 0 is no effect, 100 is complete control
# Text: (§1) Seeds of plant species selected from barnyardgrass (Echinochloa crus-galli), kochia (Kochia scoparia), ragweed (common ragweed, Ambrosia elatior), ryegrass, Italian (Lolium multiflorum), foxtail, giant (Setaria faberii), foxtail, green (Setaria viridis), and pigweed (Amaranthus retroflexus) were planted into a blend of loam soil and sand and treated preemergence with a directed soil spray using test chemicals formulated in a non-phytotoxic solvent mixture which included a surfactant.
# (§2) At the same time, plants selected from these weed species and also wheat (Triticum aestivum), corn (Zea mays), blackgrass (Alopecurus myosuroides), and galium (catchweed bedstraw, Galium aparine) were planted in pots containing the same blend of loam soil and sand and treated with postemergence applications of test chemicals formulated in the same manner. Plants ranged in height from 2 to 10 cm and were in the one- to two-leaf stage for the postemergence treatment. Treated plants and untreated controls were maintained in a greenhouse for approximately 10 d, after which time all treated plants were compared to untreated controls and visually evaluated for injury. Plant response ratings, summarized in Table A, are based on a 0 to 100 scale where 0 is no effect and 100 is complete control. A dash (-) response means no test result.
# [2] = system: foxtail, giant (Setaria faberii); assay: Test A postemergence, giant foxtail; conditions: 0 to 100 scale
# Text: as §1, §2
# [3] = system: pigweed (Amaranthus retroflexus); assay: Test A postemergence, pigweed; conditions: 0 to 100 scale
# Text: as §1, §2
# [4] = system: ryegrass, Italian (Lolium multiflorum); assay: Test A postemergence, Italian ryegrass; conditions: 0 to 100 scale
# Text: as §1, §2
# [5] = system: wheat (Triticum aestivum); assay: Test A postemergence, wheat; conditions: 0 to 100 scale
# Text: as §1, §2
# [6] = system: sedge, umbrella (small-flower umbrella sedge, Cyperus difformis); assay: Test B flooded paddy test, umbrella sedge; conditions: Flood, 250 g ai/ha, applied to paddy water, 2-leaf stage, visual evaluation after 13 to 15 d
# Description: (§3) Plant species in the flooded paddy test selected from rice (Oryza sativa), sedge, umbrella (small-flower umbrella sedge, Cyperus difformis), ducksalad (Heteranthera limosa), and barnyardgrass (Echinochloa crus-galli) were grown to the 2-leaf stage for testing. At the time of treatment, test pots were flooded to 3 cm above the soil surface, treated by application of test compounds directly to the paddy water, and then maintained at that water depth for the duration of the test. Treated plants and controls were maintained in a greenhouse for 13 to 15 d, after which time all species were compared to controls and visually evaluated. Plant response ratings, summarized in Table B, are based on a scale of 0 to 100 where 0 is no effect and 100 is complete control. A dash (-) response means no test result.
# [7] = system: barnyardgrass (Echinochloa crus-galli); assay: Test A preemergence, barnyardgrass; conditions: 0 to 100 scale; for Barnyardgrass plant response rating: 0 is no effect, 100 is complete control
# Text: as §1, §2
# [8] = system: barnyardgrass (Echinochloa crus-galli); assay: Test B flooded paddy test, barnyardgrass; conditions: Flood, 250 g ai/ha, applied to paddy water, 2-leaf stage, visual evaluation after 13 to 15 d
# Description: as §3
# [9] = system: ducksalad (Heteranthera limosa); assay: Test B flooded paddy test, ducksalad; conditions: Flood, 250 g ai/ha, applied to paddy water, 2-leaf stage, visual evaluation after 13 to 15 d
# Description: as §3
# rice (Oryza sativa) = assay: Test B flooded paddy test, rice; conditions: Flood, 250 g ai/ha, applied to paddy water, 2-leaf stage, visual evaluation after 13 to 15 d
# Description: as §3
# [10] = system: pigweed (Amaranthus retroflexus); assay: Test A preemergence, pigweed; conditions: 0 to 100 scale; for Pigweed plant response rating: 0 is no effect, 100 is complete control
# Text: as §1, §2
# [11] = system: foxtail, giant (Setaria faberii); assay: Test A preemergence, giant foxtail; conditions: 0 to 100 scale; for Foxtail, Giant plant response rating: 0 is no effect, 100 is complete control
# Text: as §1, §2
# [12] = system: ryegrass, Italian (Lolium multiflorum); assay: Test A preemergence, Italian ryegrass; conditions: 0 to 100 scale; for Ryegrass, Italian plant response rating: 0 is no effect, 100 is complete control
# Text: as §1, §2
# kochia (Kochia scoparia) [13] = assay: Test A postemergence, kochia; conditions: 0 to 100 scale
# Text: as §1, §2
# corn (Zea mays) = assay: Test A postemergence, corn; conditions: 0 to 100 scale
# Text: as §1, §2
# [14] = system: galium (catchweed bedstraw, Galium aparine); assay: Test A postemergence, galium; conditions: 0 to 100 scale
# Text: as §1, §2
# [15] = system: ragweed (common ragweed, Ambrosia elatior); assay: Test A postemergence, ragweed; conditions: 0 to 100 scale
# Text: as §1, §2
# [16] = system: blackgrass (Alopecurus myosuroides); assay: Test A postemergence, blackgrass; conditions: 0 to 100 scale
# Text: as §1, §2
# [17] = system: barnyardgrass (Echinochloa crus-galli); assay: Test A postemergence, barnyardgrass; conditions: 0 to 100 scale
# Text: as §1, §2
# [18] = system: ragweed (common ragweed, Ambrosia elatior); assay: Test A preemergence, ragweed; conditions: 0 to 100 scale, 0 is no effect, 100 is complete control
# Text: as §1, §2
# [19] = 125 g ai/ha, 0 no effect, 100 complete control
# [20] = 500 g ai/ha, 0 no effect, 100 complete control
compound,measurement,setting,value
CC(Nc1ncc(C(F)(F)F)c(N)n1)c1cc2ccccc2s1 (racemic) [Compound 16],"Plant response rating, Kochia",kochia (Kochia scoparia) [1]; 125 g ai/ha,70
same,"Plant response rating, Kochia",kochia (Kochia scoparia) [1]; 500 g ai/ha,100
same,"Plant response rating, Foxtail, Giant",[2]; 125 g ai/ha,20
same,"Plant response rating, Foxtail, Giant",[2]; 500 g ai/ha,90
same,"Plant response rating, Pigweed",[3]; 125 g ai/ha,90
same,"Plant response rating, Pigweed",[3]; 500 g ai/ha,100
same,"Plant response rating, Ryegrass, Italian",[4]; 125 g ai/ha,0
same,"Plant response rating, Ryegrass, Italian",[4]; 500 g ai/ha,40
same,"Plant response rating, Wheat",[5]; 125 g ai/ha,0
same,"Plant response rating, Wheat",[5]; 500 g ai/ha,0
same,"Plant response rating, Sedge, Umbrella (0 to 100 scale, 0 is no effect, 100 is complete control)",[6],95
same,"Plant response rating, Barnyardgrass",[7]; 125 g ai/ha,70
same,"Plant response rating, Barnyardgrass",[7]; 500 g ai/ha,100
same,"Plant response rating, Barnyardgrass (0 to 100 scale, 0 is no effect, 100 is complete control)",[8],50
same,"Plant response rating, Ducksalad (0 to 100 scale, 0 is no effect, 100 is complete control)",[9],15
same,"Plant response rating, Rice (0 to 100 scale, 0 is no effect, 100 is complete control)",rice (Oryza sativa),0
same,"Plant response rating, Pigweed",[10]; 125 g ai/ha,90
same,"Plant response rating, Pigweed",[10]; 500 g ai/ha,100
same,"Plant response rating, Foxtail, Giant",[11]; 125 g ai/ha,50
same,"Plant response rating, Foxtail, Giant",[11]; 500 g ai/ha,100
same,"Plant response rating, Ryegrass, Italian",[12]; 125 g ai/ha,0
same,"Plant response rating, Ryegrass, Italian",[12]; 500 g ai/ha,10
same,"Plant response rating, Kochia",kochia (Kochia scoparia) [13]; 125 g ai/ha,70
same,"Plant response rating, Kochia",kochia (Kochia scoparia) [13]; 500 g ai/ha,80
same,"Plant response rating, Corn",corn (Zea mays); 125 g ai/ha,0
same,"Plant response rating, Corn",corn (Zea mays); 500 g ai/ha,20
same,"Plant response rating, Galium",[14]; 125 g ai/ha,60
same,"Plant response rating, Galium",[14]; 500 g ai/ha,80
same,"Plant response rating, Ragweed",[15]; 125 g ai/ha,0
same,"Plant response rating, Ragweed",[15]; 500 g ai/ha,80
same,"Plant response rating, Blackgrass",[16]; 125 g ai/ha,10
same,"Plant response rating, Blackgrass",[16]; 500 g ai/ha,30
same,"Plant response rating, Barnyardgrass",[17]; 125 g ai/ha,30
same,"Plant response rating, Barnyardgrass",[17]; 500 g ai/ha,60
CC(Nc1ncc(C(F)(F)F)c(N)n1)c1cc2c(Br)cccc2o1 (stereo not drawn) [Compound 102],Kochia plant response rating,kochia (Kochia scoparia) [1]; 125 g ai/ha,70
same,Kochia plant response rating,kochia (Kochia scoparia) [1]; 500 g ai/ha,90
same,"Plant response rating, Foxtail, Giant",[2]; [19],0
same,"Plant response rating, Foxtail, Giant",[2]; [20],20
same,"Plant response rating, Pigweed",[3]; [19],100
same,"Plant response rating, Pigweed",[3]; [20],100
same,"Plant response rating, Ryegrass, Italian",[4]; [19],0
same,"Plant response rating, Ryegrass, Italian",[4]; [20],30
same,"Plant response rating, Wheat",[5]; [19],0
same,"Plant response rating, Wheat",[5]; [20],40
same,Ragweed plant response rating,[18]; 125 g ai/ha,50
same,Ragweed plant response rating,[18]; 500 g ai/ha,80
same,Barnyardgrass plant response rating,[7]; 125 g ai/ha,30
same,Barnyardgrass plant response rating,[7]; 500 g ai/ha,80
same,Pigweed plant response rating,[10]; 125 g ai/ha,100
same,Pigweed plant response rating,[10]; 500 g ai/ha,100
same,"Foxtail, Giant plant response rating",[11]; 125 g ai/ha,80
same,"Foxtail, Giant plant response rating",[11]; 500 g ai/ha,100
same,"Ryegrass, Italian plant response rating",[12]; 125 g ai/ha,30
same,"Ryegrass, Italian plant response rating",[12]; 500 g ai/ha,60
same,"Plant response rating, Kochia",kochia (Kochia scoparia) [13]; [19],70
same,"Plant response rating, Kochia",kochia (Kochia scoparia) [13]; [20],90
same,"Plant response rating, Corn",corn (Zea mays); [19],0
same,"Plant response rating, Corn",corn (Zea mays); [20],20
same,"Plant response rating, Galium",[14]; [19],100
same,"Plant response rating, Galium",[14]; [20],100
same,"Plant response rating, Ragweed",[15]; [19],30
same,"Plant response rating, Ragweed",[15]; [20],100
same,"Plant response rating, Blackgrass",[16]; [19],0
same,"Plant response rating, Blackgrass",[16]; [20],40
same,"Plant response rating, Barnyardgrass",[17]; [19],10
same,"Plant response rating, Barnyardgrass",[17]; [20],70

# Reference: US20220119354A1, “DIAMINO-SUBSTITUTED PYRIDINES AND PYRIMIDINES AS HERBICIDES” (FMC Corporation, priority 2019, published 2022)
